# From patent US9616051B2, “Drug targets to overcome de novo drug-resistance in multiple myeloma” (H. Lee Moffitt Cancer Center and Research Institute, Inc., priority 2008, dated 2017)
# Where two headings read alike, the source gives them in different places.
# Key:
# RPMI-8226 (8226) = assay: CT-Glo cytotoxicity assay, 8226 cells; type: cell-based, human; conditions: Homo sapiens, RPMI-8226
# From the text: Compounds identified in Example 1 as the top scoring potential inhibitors for each of the two NES (20 each) were obtained from NCI and structures of these molecules confirmed using NMR and mass spectroscopy analysis, seen in FIGS. 4(A)-(C) and 5(A)-(D). The potential inhibitors were followed up using in vitro model cell cultures. MM cell lines NCI-H929 (H929) and RPMI-8226 (8226) were obtained from and tested for authenticity by the American Type Culture Collection (Manassas, Va.). All cell lines were grown as described previously (Turner, et al., Human topoisomerase IIalpha nuclear export is mediated by two CRM-1-dependent nuclear export signals. J Cell Sci 2004; 117: 3061-71).
# (§1) The molecules with the highest docking scores were assayed for IC50 values. Cultures were tested for cytotoxicity using the CellTiter-Glo assay (CT-Glo cytotoxicity assay; Promega, Madison, Wis.), a luminescence-based homogeneous method for determining the number of viable cells in culture based on quantitation of the ATP present, which signals the presence of metabolically active cells (Corsino, et al., A novel class of cyclin-dependent kinase inhibitors identified by molecular docking act through a unique mechanism. J Biol Chem 2009; 284: 29945-55; Homsi, et al., Src activation in melanoma and Src inhibitors as therapeutic agents in melanoma. Melanoma Res 2009; 19: 167-75). All cells were assayed at log-phase growth conditions. Luminescence was measured with a Synergy 4 microplate reader (Bio-Tek Instruments, Inc., Winooski, Vt.). IC50 values were determined using a sigmoidal equilibrium model regression using XLfit version 5.2 (ID Business Solutions Ltd., Surrey, UK) (Corsino, et al., A novel class of cyclin-dependent kinase inhibitors identified by molecular docking act through a unique mechanism. J Biol Chem 2009; 284: 29945-55).
# WI-38 = assay: CT-Glo cytotoxicity assay, WI-38 cells; type: cell-based; conditions: Homo sapiens, 72-h CT-Glo
# Protocol: as §1
# topo IIα = target: T1, topo IIα (Homo sapiens, UniProt P11388); assay: Nuclear-cytoplasmic fractionation and Western blot for topo IIα; type: cell-based; conditions: high-density RPMI-H929 cells, 25 μM, FIG. 13 legend
# T1 construct: effect on the intracellular location of topo IIα in treated MM cells; endogenous in cells; host or cells: human multiple myeloma cells NCI-H929
# Protocol: FIGS. 13(A) and (B) are blots from nuclear (nuc)-cytoplasmic (cyto) fractionation of high-density MM cells (n=2). […] Human myeloma RPMI-H929 cells were treated for 24 hours. Cells were then chemically separated into nuclear and cytoplasmic fractions.
# Human myeloma cells were placed at plateau concentrations (4×10^6 cells/ml), and NES inhibitors were added at 25 μM for 20 hours. Cells were collected, washed in PBS, and fractionated by a method adapted from Li et al. (Li Y, Bor Y C, Misawa Y, Xue Y, Rekosh D, Hammarskjold M L. An intron with a constitutive transport element is retained in a Tap messenger RNA. Nature 2006; 443: 234-7). Separated fractions containing nuclei or precipitated cytosol were dissolved in 2% SDS buffer and assayed by SDS-PAGE Western blot analysis. Blots were probed with an anti-topo IIα Kis1 antibody (Millipore Corp.). […] Cells grown at log-phase concentrations were also fractionated. After MM cells were treated with NCI-9138 at 25 μM for 20 hours, CRM1-topo IIα complexes were isolated from cells by immunoprecipitation using a combination of both protein A and protein G magnetic beads according to the manufacturer's protocol (Miltenyi Biotec, Cologne, Germany). Co-immunoprecipitation was performed with 2 μg of anti-CRM1 antibody (Santa Cruz Biotechnology, Inc., Santa Cruz, Calif.). Immunoprecipitation samples were separated by SDS-PAGE, transferred to nitrocellulose membranes, and probed with anti-topo IIα Kis1 antibody (Millipore, Corp., Billerica, Mass.) and anti-mouse horseradish peroxidase secondary antibody.
# T1 sequence (P11388 whole entry): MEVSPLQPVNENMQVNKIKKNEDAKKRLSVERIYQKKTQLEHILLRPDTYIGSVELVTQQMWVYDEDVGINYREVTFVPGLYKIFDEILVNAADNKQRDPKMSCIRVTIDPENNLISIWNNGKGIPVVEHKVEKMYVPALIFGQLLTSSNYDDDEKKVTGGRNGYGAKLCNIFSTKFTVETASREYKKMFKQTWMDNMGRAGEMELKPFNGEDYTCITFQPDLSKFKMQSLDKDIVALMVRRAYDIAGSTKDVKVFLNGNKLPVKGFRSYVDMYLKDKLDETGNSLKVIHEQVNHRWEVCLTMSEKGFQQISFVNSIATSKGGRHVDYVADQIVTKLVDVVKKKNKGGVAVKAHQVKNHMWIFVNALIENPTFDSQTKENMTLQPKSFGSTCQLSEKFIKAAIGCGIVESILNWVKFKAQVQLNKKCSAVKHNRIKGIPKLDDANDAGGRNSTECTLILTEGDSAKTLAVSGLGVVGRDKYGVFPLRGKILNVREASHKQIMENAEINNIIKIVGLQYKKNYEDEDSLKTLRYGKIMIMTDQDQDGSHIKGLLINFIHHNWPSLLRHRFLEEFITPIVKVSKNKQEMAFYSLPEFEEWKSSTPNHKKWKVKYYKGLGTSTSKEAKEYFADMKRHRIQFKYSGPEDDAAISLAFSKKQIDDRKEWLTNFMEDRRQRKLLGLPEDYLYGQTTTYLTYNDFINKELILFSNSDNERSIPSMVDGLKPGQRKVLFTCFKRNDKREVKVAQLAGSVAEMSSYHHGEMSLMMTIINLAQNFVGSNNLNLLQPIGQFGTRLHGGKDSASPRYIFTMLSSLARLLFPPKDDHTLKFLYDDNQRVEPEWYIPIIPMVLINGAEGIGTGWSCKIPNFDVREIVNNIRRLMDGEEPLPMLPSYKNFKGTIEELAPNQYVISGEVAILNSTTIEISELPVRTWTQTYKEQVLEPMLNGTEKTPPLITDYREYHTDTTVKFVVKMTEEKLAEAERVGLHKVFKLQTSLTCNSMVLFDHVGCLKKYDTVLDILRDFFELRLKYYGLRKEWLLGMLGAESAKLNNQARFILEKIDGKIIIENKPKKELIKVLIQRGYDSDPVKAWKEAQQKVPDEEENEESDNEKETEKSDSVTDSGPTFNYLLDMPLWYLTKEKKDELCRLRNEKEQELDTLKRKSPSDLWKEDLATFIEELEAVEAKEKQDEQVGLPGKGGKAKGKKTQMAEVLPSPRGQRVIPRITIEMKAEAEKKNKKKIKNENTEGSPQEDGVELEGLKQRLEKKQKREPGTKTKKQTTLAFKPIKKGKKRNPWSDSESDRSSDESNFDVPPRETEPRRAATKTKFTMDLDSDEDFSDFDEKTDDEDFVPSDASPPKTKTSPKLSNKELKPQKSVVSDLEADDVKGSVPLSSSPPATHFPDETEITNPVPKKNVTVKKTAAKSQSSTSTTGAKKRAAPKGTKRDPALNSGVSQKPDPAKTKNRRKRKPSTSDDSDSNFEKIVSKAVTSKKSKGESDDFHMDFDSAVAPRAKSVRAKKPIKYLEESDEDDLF
smiles,measurement,setting,value
"O=C1c2ccccc2C(=O)C1C(=O)C(c1ccccc1)c1ccccc1 [NCI-9138, 2-(diphenylacetyl)-1H-indene-1,3(2H)-dione]",IC50,"RPMI-8226 (8226); 8226 cells, 72-h CT-Glo, log-phase (low-density), average ± SD, read-out: IC50",12.7 ± 4.5 µM
same,IC50,"RPMI-8226 (8226); high-density cells, single agent (data not shown), read-out: IC50, viability of high-density cells",9.4 µM
same,IC50,WI-38,30.1 µM
same,"Export of topo IIα, nuclear-cytoplasmic fractionation",topo IIα,strongly blocked export of topo IIα
